Results taken from patent US20230122249A1, “1H-PYRAZOLO[4,3-d]PYRIMIDINE COMPOUNDS AS TOLL-LIKE RECEPTOR 7 (TLR7) AGONISTS” (BRISTOL-MYERS SQUIBB COMPANY, priority 2020, published 2023).

How the values were obtained:
human TLR7 = target: T1, human TLR7 (Homo sapiens, UniProt Q9NYK1); experiment: Human TLR7 agonist activity (hTLR7 reporter) assay in HEK-Blue TLR7 cells, SEAP readout; assay type: cell-based; details: 18 h treatment, average where assay repeated
T1 construct: host or cells: HEK-Blue TLR7 cells (engineered human embryonic kidney cells)
T1 sequence (Q9NYK1 27-1049): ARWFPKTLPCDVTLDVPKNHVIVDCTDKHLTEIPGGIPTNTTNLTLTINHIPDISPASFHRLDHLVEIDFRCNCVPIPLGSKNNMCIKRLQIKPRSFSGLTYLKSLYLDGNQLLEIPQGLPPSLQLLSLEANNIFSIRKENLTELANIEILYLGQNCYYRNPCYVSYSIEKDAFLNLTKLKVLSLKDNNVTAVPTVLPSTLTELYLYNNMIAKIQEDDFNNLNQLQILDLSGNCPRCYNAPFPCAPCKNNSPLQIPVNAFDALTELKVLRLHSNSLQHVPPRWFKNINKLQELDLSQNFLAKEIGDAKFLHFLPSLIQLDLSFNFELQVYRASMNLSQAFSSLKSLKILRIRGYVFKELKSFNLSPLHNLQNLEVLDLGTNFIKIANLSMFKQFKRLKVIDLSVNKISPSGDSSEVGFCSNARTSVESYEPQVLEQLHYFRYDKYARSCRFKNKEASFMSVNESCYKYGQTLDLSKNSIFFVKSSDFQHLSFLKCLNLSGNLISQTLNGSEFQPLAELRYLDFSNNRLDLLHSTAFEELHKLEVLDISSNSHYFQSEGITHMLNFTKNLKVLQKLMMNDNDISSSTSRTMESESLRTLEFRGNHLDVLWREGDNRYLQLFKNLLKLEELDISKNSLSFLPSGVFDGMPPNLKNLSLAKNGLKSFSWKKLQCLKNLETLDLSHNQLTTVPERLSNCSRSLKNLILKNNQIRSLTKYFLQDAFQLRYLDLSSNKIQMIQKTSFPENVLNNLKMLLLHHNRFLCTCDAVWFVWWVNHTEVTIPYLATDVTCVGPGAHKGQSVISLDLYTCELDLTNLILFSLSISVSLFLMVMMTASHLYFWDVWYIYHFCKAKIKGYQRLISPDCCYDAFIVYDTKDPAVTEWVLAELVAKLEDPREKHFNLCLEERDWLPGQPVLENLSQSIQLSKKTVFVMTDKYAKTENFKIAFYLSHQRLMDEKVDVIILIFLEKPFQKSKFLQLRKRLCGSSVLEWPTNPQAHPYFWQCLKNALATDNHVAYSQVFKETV
In short: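 HEK-Blue TLR7 cells (15,000/well) treated with compound for 18 h at 37 °C, 5% CO2. Secreted SEAP measured with Quanti-Blue, 30 min, OD 620 nm. EC50 taken as concentration giving half-maximal response between baseline and maximum.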

[1] = test system: CD69 in human whole blood; experiment: Induction of CD69 in human whole blood (hWB); assay type: cell-based; details: heparinized human whole blood, 17 h, CD69 surface staining; 100% set to 1 uM resiquimod; average where assay repeated
In short: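 hWB stimulated with compound at 1 uM final (1 mM stock), 37° C o/n (17 hrs). Surface CD69-PE staining with CD14/CD19 gating, fix/lysis, then flow cytometry read. IC50 curves with 100% set to 1 uM resiquimod.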

In the case of CCC[C@@H](CCO)Nc1nc(N)nc2cnn(Cc3ncc(C4=CC5(CCNCC5)C4)cc3OC)c12 [Compound 272, (3S)-3-({5-amino-1-[(5-{7-azaspiro[3.5]non-1-en-2-yl}-3-methoxypyridin-2-yl)methyl]-1H-pyrazolo[4,3-d]pyrimidin-7-yl}amino)hexan-1-ol], the EC50 (human TLR7) is reported as 668 nM and the EC50 [1] is reported as 31.9 nM.

CCC[C@@H](CCO)Nc1nc(N)nc2cnn(Cc3ncc(C4=CC5(CCN(C6CCOCC6)CC5)C4)cc3OC)c12 [Compound 273, (3S)-3-{[5-amino-1-({3-methoxy-5-[7-(oxan-4-yl)-7-azaspiro[3.5]non-1-en-2-yl]pyridin-2-yl}methyl)-1H-pyrazolo[4,3-d]pyrimidin-7-yl]amino}hexan-1-ol] was tested, and the EC50 (human TLR7) was 47.5 nM and the EC50 [1] was 1.5 nM.

For CCC[C@@H](CCO)Nc1nc(N)nc2cnn(Cc3ncc(C4=CC5(CCN(C(C)C)CC5)C4)cc3OC)c12 [Compound 274], the EC50 (human TLR7) was 82.3 nM and the EC50 [1] was 1.1 nM.

CCC[C@@H](CCO)Nc1nc(N)nc2cnn(Cc3ncc(C4=CC5(CCN(CC(C)C)CC5)C4)cc3OC)c12 [Compound 275] showed an EC50 (human TLR7) of 11 nM and an EC50 [1] of 1.2 nM.

CCC[C@@H](CCO)Nc1nc(N)nc2cnn(Cc3ncc(C4CCC5(CC4)CN(C(C)C)C5)cc3OC)c12 [Compound 277] was tested, and the EC50 (human TLR7) was 19.7 nM and the EC50 [1] was 0.3 nM.
